In ChEMBL document CHEMBL1909540, “Synthesis and antimycobacterial evaluation of 3a,4-dihydro-3H-indeno [1,2-c] pyrazole-2-carboxamide analogues” (Eur J Med Chem, 2011):
In brackets after ≈: the same amount, converted by molar mass.

Key:
[1] = tested on: Mycobacterium tuberculosis; assay: Antitubercular activity against Mycobacterium tuberculosis H37Rv by two fold serial dilution method; assay type: functional
Vero = assay: Cytotoxicity against african green monkey Vero cells after 72 hrs by MTT assay; assay type: cell-based; settings: Chlorocebus sabaeus
[2] = Safety index, ratio of IC50 for african green monkey Vero cells to MIC for Mycobacterium tuberculosis H37Rv; assay type: toxicity, cell-based

Row | SMILES | MIC [1] [µM] | IC50 (Vero) [µM] | selectivity ratio [2]
1 | COc1cc2c(cc1OC)C1=NN(C(=O)Nc3ccc([N+](=O)[O-])cc3)C(c3ccncc3)C1C2 (stereo not drawn) | 6.8 (≈ 3.12 µg/mL) | 68 | –
2 | COc1cc2c(cc1OC)C1=NN(C(=O)Nc3ccc(Cl)cc3)C(c3ccncc3)C1C2 (stereo not drawn) | 6.96 (≈ 3.12 µg/mL) | > 139 | –
3 | COc1cc2c(cc1OC)C1=NN(C(=O)Nc3ccc(Cl)cc3)C(c3ccccc3Cl)C1C2 (stereo not drawn) | 13.9 (≈ 6.71 µg/mL) | – | –
4 | COc1cc2c(cc1OC)C1=NN(C(=O)Nc3ccc(Cl)cc3)C(c3ccc(F)cc3)C1C2 (stereo not drawn) | 0.83 (≈ 0.387 µg/mL) | > 134 | > 161
5 | COc1ccc(C2C3Cc4cc(OC)c(OC)cc4C3=NN2C(=O)Nc2ccc(Cl)cc2)cc1OC (stereo not drawn) | 9.8 (≈ 4.98 µg/mL) | – | –
6 | COc1cc2c(cc1OC)C1=NN(C(=O)Nc3ccc(Cl)cc3)C(c3ccccc3)C1C2 (stereo not drawn) | 6.97 (≈ 3.12 µg/mL) | > 139 | –
7 | COc1ccc(C2C3Cc4cc(OC)c(OC)cc4C3=NN2C(=O)Nc2ccc(Cl)cc2)cc1 (stereo not drawn) | 10.5 (≈ 5 µg/mL) | – | –
8 | COc1cc2c(cc1OC)C1=NN(C(=O)Nc3ccc([N+](=O)[O-])cc3)C(c3ccccc3Cl)C1C2 (stereo not drawn) | 12.7 (≈ 6.25 µg/mL) | – | –
9 | COc1cc2c(cc1OC)C1=NN(C(=O)Nc3ccc([N+](=O)[O-])cc3)C(c3ccc(F)cc3)C1C2 (stereo not drawn) | 3.16 (≈ 1.51 µg/mL) | 94.8 | –
10 | COc1ccc(C2C3Cc4cc(OC)c(OC)cc4C3=NN2C(=O)Nc2ccc([N+](=O)[O-])cc2)cc1OC (stereo not drawn) | 12.1 (≈ 6.25 µg/mL) | – | –
11 | COc1cc2c(cc1OC)C1=NN(C(=O)Nc3ccc([N+](=O)[O-])cc3)C(c3ccccc3)C1C2 (stereo not drawn) | 6.81 (≈ 3.12 µg/mL) | 51.1 | –
12 | COc1ccc(C2C3Cc4cc(OC)c(OC)cc4C3=NN2C(=O)Nc2ccc([N+](=O)[O-])cc2)cc1 (stereo not drawn) | 12.8 (≈ 6.24 µg/mL) | – | –
13 | COc1cc2c(cc1OC)C1=NN(C(N)=O)C(c3ccncc3)C1C2 (stereo not drawn) | 11.8 (≈ 3.99 µg/mL) | – | –
14 | COc1cc2c(cc1OC)C1=NN(C(N)=O)C(c3ccccc3Cl)C1C2 (stereo not drawn) | 10.8 (≈ 4 µg/mL) | – | –
15 | COc1cc2c(cc1OC)C1=NN(C(N)=O)C(c3ccc(F)cc3)C1C2 (stereo not drawn) | 8.44 (≈ 3 µg/mL) | 177 | –
16 | COc1ccc(C2C3Cc4cc(OC)c(OC)cc4C3=NN2C(N)=O)cc1OC (stereo not drawn) | 10.1 (≈ 3.99 µg/mL) | – | –
17 | COc1cc2c(cc1OC)C1=NN(C(N)=O)C(c3ccccc3)C1C2 (stereo not drawn) | 11.8 (≈ 3.99 µg/mL) | – | –
18 | COc1ccc(C2C3Cc4cc(OC)c(OC)cc4C3=NN2C(N)=O)cc1 (stereo not drawn) | 10.9 (≈ 3.99 µg/mL) | – | –
19 | NNC(=O)c1ccncc1 [ISONIAZID] | 0.56 (≈ 0.0768 µg/mL) | > 456 | –
